The record followed here is PMC8113468, “Sugar transporters enable a leaf beetle to accumulate plant defense compounds” (Nature Communications, 2021).

The Km is the concentration of substrate that gives half-maximal velocity.

Common to all, as to format: cell-based
One assay deals with T1, PaGTR3 (Phyllotreta armoraciae, UniProt A0A858Z6Y2).
T1 construct: gene GTR3; full-length ORF in pIEx-4, C-terminal 6xHis tag, expressed in High Five insect cells
T1 sequence (A0A858Z6Y2 1-478): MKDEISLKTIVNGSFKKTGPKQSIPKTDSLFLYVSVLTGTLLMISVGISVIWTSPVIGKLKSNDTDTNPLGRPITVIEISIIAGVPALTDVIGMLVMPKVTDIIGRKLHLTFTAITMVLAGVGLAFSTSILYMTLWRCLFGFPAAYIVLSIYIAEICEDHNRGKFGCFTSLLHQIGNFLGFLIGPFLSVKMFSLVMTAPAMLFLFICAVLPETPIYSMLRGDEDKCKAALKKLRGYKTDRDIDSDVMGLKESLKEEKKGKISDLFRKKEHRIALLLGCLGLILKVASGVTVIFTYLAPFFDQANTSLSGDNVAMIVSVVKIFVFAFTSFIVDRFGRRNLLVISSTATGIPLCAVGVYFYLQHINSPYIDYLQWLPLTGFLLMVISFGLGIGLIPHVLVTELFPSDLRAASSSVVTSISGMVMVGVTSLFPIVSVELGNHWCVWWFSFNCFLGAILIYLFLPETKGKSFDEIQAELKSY
The assay is described as follows: uptake into transfected High Five insect cells, LC-MS/MS. Particulars: equimolar mixture of seven glucosinolates, 200 µM, PBS pH 5.5, 1 h, 27 °C.

In a further assay the target is T2, PaGTR1 (Phyllotreta armoraciae, UniProt A0A858Z6R5).
T2 construct: gene GTR1; full-length ORF without stop codon in pNB1u, C-terminal HA tag, cRNA expressed in Xenopus laevis oocytes
T2 sequence (A0A858Z6R5 entry or part of it): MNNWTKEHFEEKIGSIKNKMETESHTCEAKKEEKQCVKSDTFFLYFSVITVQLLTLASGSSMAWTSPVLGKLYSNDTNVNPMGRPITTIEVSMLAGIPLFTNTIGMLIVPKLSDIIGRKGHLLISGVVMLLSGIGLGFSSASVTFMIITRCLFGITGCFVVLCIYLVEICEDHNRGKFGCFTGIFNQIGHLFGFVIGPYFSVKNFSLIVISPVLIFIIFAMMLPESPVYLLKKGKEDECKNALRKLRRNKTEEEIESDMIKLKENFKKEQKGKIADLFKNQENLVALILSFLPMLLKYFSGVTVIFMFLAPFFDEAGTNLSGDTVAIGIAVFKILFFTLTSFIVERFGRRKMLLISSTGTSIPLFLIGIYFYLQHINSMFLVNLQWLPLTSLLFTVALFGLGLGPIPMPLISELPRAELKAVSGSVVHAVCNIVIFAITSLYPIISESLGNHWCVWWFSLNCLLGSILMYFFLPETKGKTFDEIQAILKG
The experiment in a line: uptake into PaGTR1-expressing Xenopus oocytes, LC-MS/MS. Particulars: Kulori buffer with MES pH 6.0, 10 min, room temperature; proton-dependent import; read-out: apparent Km.

A further assay deals with T3, PaGTR2 (Phyllotreta armoraciae, UniProt A0A858Z6M7).
T3 construct: gene GTR2; full-length ORF in pIEx-4, C-terminal 6xHis tag, expressed in High Five insect cells
T3 sequence (A0A858Z6M7 1-504): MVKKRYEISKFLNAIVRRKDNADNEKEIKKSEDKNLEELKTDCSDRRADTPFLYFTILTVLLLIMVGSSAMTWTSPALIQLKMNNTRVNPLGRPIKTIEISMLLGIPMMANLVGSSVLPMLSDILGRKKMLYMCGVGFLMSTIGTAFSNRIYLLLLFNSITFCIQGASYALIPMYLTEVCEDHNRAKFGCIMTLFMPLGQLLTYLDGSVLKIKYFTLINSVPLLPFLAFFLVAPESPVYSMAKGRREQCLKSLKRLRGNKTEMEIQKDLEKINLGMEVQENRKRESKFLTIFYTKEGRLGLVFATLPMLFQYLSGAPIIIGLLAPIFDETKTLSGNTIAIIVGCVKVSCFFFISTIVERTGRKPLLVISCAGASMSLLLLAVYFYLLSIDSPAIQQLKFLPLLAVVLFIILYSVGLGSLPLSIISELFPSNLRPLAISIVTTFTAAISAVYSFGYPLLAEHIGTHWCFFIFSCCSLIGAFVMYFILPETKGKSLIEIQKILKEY
The assay is described as follows: uptake into transfected High Five insect cells, LC-MS/MS. The settings on record: equimolar mixture of seven glucosinolates, 200 µM, PBS pH 5.5, 1 h, 27 °C.

In the case of `O=S(=O)(O)O/N=C(/Cc1c[nH]c2ccccc12)S[C@@H]1O[C@H](CO)[C@@H](O)[C@H](O)[C@H]1O` [I3M glucosinolate], the “uptake into transfected High Five insect cells, LC-MS/MS” value at PaGTR3 is “PaGTR2 and PaGTR3 expression was analyzed because the recombinant transporters also used I3M glucosinolate”; at PaGTR2, “PaGTR2 and PaGTR3 expression was analyzed because the recombinant transporters also used I3M glucosinolate”. Besides, the Km on PaGTR1 was determined as 50.6 ± 4.1 µM.
